The text below walks through data of publication PMC3557747 (Bioorganic & medicinal chemistry letters, 2012).

Like-named read-outs stand apart in the source and are kept apart here.

Experiment [1] has as its target T1, CpIMPDH (Cryptosporidium parvum, UniProt Q8T6T2).
T1 sequence (Q8T6T2 1-400): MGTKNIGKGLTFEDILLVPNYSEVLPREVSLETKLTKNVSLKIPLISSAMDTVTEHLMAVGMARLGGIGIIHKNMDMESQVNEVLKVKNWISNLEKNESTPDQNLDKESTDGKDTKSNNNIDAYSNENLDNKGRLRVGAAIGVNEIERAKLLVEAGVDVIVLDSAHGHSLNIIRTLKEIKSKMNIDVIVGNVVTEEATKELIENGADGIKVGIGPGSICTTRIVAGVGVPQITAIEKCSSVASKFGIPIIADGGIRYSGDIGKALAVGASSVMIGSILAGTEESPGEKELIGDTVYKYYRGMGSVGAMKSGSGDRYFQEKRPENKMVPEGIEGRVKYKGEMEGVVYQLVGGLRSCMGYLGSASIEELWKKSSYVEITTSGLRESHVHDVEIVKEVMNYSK
As to the kind of experiment: Mechanism of CpIMPDH inhibition with respect to NAD+. The class given is biochemical.

A further experiment has as its system C. parvum. As to the kind of experiment: IL12 knockout mouse model of C. parvum infection. The class given is in vivo. To be noted: 250 mg/kg oral once per day for seven days.
The next experiment deals with T. gondii/CpIMPDH. As to the kind of experiment: Antiparasitic activity in Toxoplasma gondii model of C. parvum infection. To be noted: cultured in hTERT-immortalized human foreskin fibroblasts.
The conditions of experiment [2]: 50 μM; cited from earlier work.
The subject of the next experiment is human IMPDH2. The settings on record: read-out: IC50 human IMPDH2; cited from earlier work.
Another experiment relates to human IMPDH1. The settings on record: read-out: IC50 human IMPDH1; cited from earlier work.
For experiment [3], the target named is T1, CpIMPDH. To be noted: with respect to NAD+, cited from earlier work.

For orientation: IC50 means the concentration needed to halve the response being measured.

For `Cn1nc(CC(=O)Nc2ccc(Cl)c(C(F)(F)F)c2)c2ccccc2c1=O` [Compound 27], at CpIMPDH [1], the mode of inhibition result was “pure noncompetitive inhibitor”. Further, the “antiparasitic activity in vivo” value in the experiment on C. parvum is “no antiparasitic activity was observed”. In addition, the “EC50 Toxo/CpIMPDH” value in the experiment on T. gondii/CpIMPDH was “sub-micromolar activity”.

On to `Cn1nc(CC(=O)Nc2ccc3oc4ccccc4c3c2)c2ccccc2c1=O` [Compound 54], for which, in the experiment with T. gondii/CpIMPDH, the “EC50 Toxo/CpIMPDH” value is “sub-micromolar activity”.

Take `COc1ccc(NC(=O)Cc2nn(C)c(=O)c3ccccc23)cc1` [Compound 1]: in experiment [2], the antiparasitic activity result is reported as “did not display antiparasitic activity”. Further, the IC50 with human IMPDH2 and in the experiment on human IMPDH1 was above 50 µM each time. The Ki on CpIMPDH [3] (read-out: Kis) was 1.8 µM. Further, at CpIMPDH [3], the mode of inhibition result is listed as “mixed inhibitor”.

`Cn1nc(CC(=O)Nc2ccc3oc4c(c3c2)CCCC4)c2ccccc2c1=O` [Compound 53]: the “EC50 Toxo/CpIMPDH” value in the experiment on T. gondii/CpIMPDH is recorded as “sub-micromolar activity”.

As to `Cn1nc(CC(=O)Nc2ccc(Br)c(C(F)(F)F)c2)c2ccccc2c1=O` [Compound 26], the “EC50 Toxo/CpIMPDH” value in the experiment with T. gondii/CpIMPDH is “sub-micromolar activity”.
